Here are results for three compounds from ChEMBL document CHEMBL5252511 (J Med Chem, 2016).

The nature of series [1]: Permeability of compound at pH 7.4 by PAMPA assay. It is filed as ADME. Particulars: read-out: permeability. On the technique in general: In PAMPA a lipid-coated filter parts donor from acceptor wells.
Series [2] is described as follows: Permeability of compound at pH 5.5 by PAMPA assay. Particulars: read-out: permeability. The format is ADME.
Series [3] can be described thus: Permeability across basolateral to apical side in human Caco2 cells. Particulars: Caco-2, read-out: permeability. The format is ADME, cell-based. A general note: Caco-2 monolayers are a common model of the intestinal barrier.
The nature of series [4]: Permeability across apical to basolateral side in human Caco2 cells. Particulars: Caco-2, read-out: permeability. It is filed as ADME, cell-based.
Series [5] is described as follows: Ratio of drug concentration in brain to plasma of triple transgenic C57BL/6 mouse alzheimer disease model at 30 mg/kg,po and measured after 2 hrs. The format is ADME, organism-based.
A short description of series [6]: Drug exposure in brain of triple transgenic C57BL/6 mouse alzheimer disease model at 30 mg/kg,po and measured after 2 hrs. Particulars: read-out: Ct. It is filed as ADME, organism-based.
Series [7] in a line: Drug exposure in plasma of triple transgenic C57BL/6 mouse alzheimer disease model at 30 mg/kg,po and measured after 2 hrs. The format is ADME, organism-based.

`O=C(Nc1cnccc1-c1ccccc1)c1ccnc(NC(=O)C2CC2)c1`: the Papp in series [1] is 48.3 ×10⁻⁶ cm/s; in series [2], 52.6 ×10⁻⁶ cm/s. For the same compound, the Papp B→A in series [3] worked out at 30.1 ×10⁻⁶ cm/s. The Papp A→B in series [4] is 31.9 ×10⁻⁶ cm/s. In addition, in series [5], the Kp at 2 h is 0.2. Also, the concentration at 2 h in series [6] is 440 nM.
In the case of `O=C(Nc1cnccc1-c1ccc(Cl)cc1)c1ccnc(NC(=O)C2CC2)c1`, the Papp was found to be 126 ×10⁻⁶ cm/s in series [1] and 90.4 ×10⁻⁶ cm/s in series [2]. In series [3], the Papp B→A amounted to 27.9 ×10⁻⁶ cm/s. For the same compound, the Papp A→B in series [4] turned out to be 35.4 ×10⁻⁶ cm/s.
`CCOc1ccncc1NC(=O)c1ccnc(NC(=O)C2CC2)c1`: the concentration at 2 h in series [7] was 47 nM.

Usually Kp stands for the ratio of the level in a tissue or fluid to that in plasma or blood.
